Laboratory results taken from patent publication US12024506B2, “Compounds” (Oxford University Innovation Limited, priority 2018, dated 2024).

Target: T1, GST-human KRas166 (G12V) GPPNHP (Homo sapiens, UniProt P01116, G12V)
T1 construct: made in house; host or cells: E. coli C41(DE3)
Experiment: KRas small-molecule screening by SPR (Biacore T200)
Format: binding
Conditions: compound 100 uM, 5% DMSO buffer; immobilised GST-KRas166 (G12V) GPPNHP
Description: For SPR assays pGEX-KRAS(G12V) plasmid was transformed into E. coli C41(DE3). Bacterial cells were cultured at 37° C. to an OD600 of 0.6 and induced with IPTG (final 0.1 mM) at 18° C. over night. The GST fusion proteins were extracted from bacteria pellets after cell disruption in 140 mM NaCl, 2.7 mM KCl, 10 mM NaH2PO4, 1.8 mM KH2PO4, 1 mM EDTA, 2 mM MgCl2 pH 7.4 and purified by glutathione-sepharose column chromatography (GE Healthcare), eluting with 50 mM Tris-HCl pH8.0, 10 mM reduced glutathione, 1 mM DTT, 2 mM MgCl2. The eluted proteins were dialysed against 50 mM Tris-HCl pH8.0, 1 mM DTT, 2 mM MgCl2 and concentrated to 10 mg/ml using a Biomax-30 ULTRAFREE-15 centrifugal filter device (Millipore). Purified KRAS protein was loaded with GPPNHP as described elsewhere (Pacold et al., 2000). Loaded protein was then purified by gel filtration on a HiLoad Superdex-75 HR column (GE Healthcare) in 1×PBS pH7.4, 5 mM MgCl2 and concentrated for storage.
Protocol for KRas Small-Molecule Screening and Affinity Measurements by SPR
To a previously immobilized CM5 chip (GE Healthcare BR-1005-30) with anti GST antibody via amine coupling method, GST in channel 1 and GST-human KRas166 (G12V) GPPNHP in channel 2 were immobilised. GST was immobilised between 2,000 and 5,000 Response units. KRAS166 (G12V) was immobilized between 10,000 to 15,000 Response Units.
In a 96 well plate, compounds were diluted in […], 5 mM MgCl2 and 5% DMSO Buffer to a final concentration of 100 uM. DCAl was used as positive control. Experiment also included a solvent correction curve for 5% DMSO. Screening and evaluation of the protein immobilization and the compounds screening was done accordingly to the BIACORE T200 control and evaluation software.
Calculations for how many response units are required for a 1:1 ratio of compound/protein interaction are shown below. • Protein immobilisation: 10,000 RU; average fragment 300 Da in size. • Rmax=(MWA/MWL)×RL×SM • MWA is the molecular weight of the analyte in Da • MWL is the molecular weight of the ligand in Da • RL is the immobilization level in RU • SM is the molar stoichiometry (assume 1:1) • Rmax=300/47,500×10,000×1 • Rmax=63 RU. Cell Viability Assay protocols Assay 1

Compound	SPR Response Units [Response Units]
COc1cc(NC(=O)C2CCN(C)CC2)cc(-c2cccc3c2OCCO3)n1 [Example 4, 1-Methyl-piperidine-4-carboxylic acid [2-(2,3-dihydro-benzo[1,4]dioxin-5-yl)-6-methoxy-pyridin-4-yl]-amide]	37
COc1cc(NC(=O)C2CCNCC2)cc(-c2cccc3c2OCCO3)n1 [Example 19, Piperidine-4-carboxylic acid [2-(2,3-dihydro-benzo[1,4]dioxin-5-yl)-6-methoxy-pyridin-4-yl]-amide]	100
CN(C)CCOc1ccc(C(=O)NCC2COc3cccc(-c4cccc(N(C)C)n4)c3O2)cc1 (stereo not drawn) [Example 103, 4-(2-Dimethylamino-ethoxy)-N-[8-(6-dimethylamino-pyridin-2-yl)-2,3-dihydro-benzo[1,4]dioxin-2-ylmethyl]-benzamide]	64
COc1nc(-c2cccc3c2OCCO3)ccc1Nc1ccc(C(=O)NCc2cccc(C)n2)cc1 [Example 174, 4-[6-(2,3-Dihydro-benzo[1,4]dioxin-5-yl)-2-methoxy-pyridin-3-ylamino]-N-(6-methyl-pyridin-2-ylmethyl)-benzamide]	43
CN1CCN(Cc2ccc(C(=O)NCC3COc4cccc(-c5cccc(=O)[nH]5)c4O3)o2)CC1 (stereo not drawn) [Example 52, 5-(4-Methyl-piperazin-1-ylmethyl)-furan-2-carboxylic acid [8-(6-oxo-1,6-dihydro-pyridin-2-yl)-2,3-dihydro-benzo[1,4]dioxin-2-ylmethyl]-amide]	18
COc1nc(-c2cccc3c2OC(CNC(=O)C2CCOCC2)CO3)ccc1Nc1cccnc1 (stereo not drawn) [Example 88, Tetrahydro-pyran-4-carboxylic acid {8-[6-methoxy-5-(pyridin-3-ylamino)-pyridin-2-yl]-2,3-dihydro-benzo[1,4]dioxin-2-ylmethyl]-amide]	161
CN(C)Cc1cccc(C(=O)N2CCN(c3cccc4c3OCCO4)CC2)c1 [Example 156, [4-(2,3-Dihydro-benzo[1,4]dioxin-5-yl)-piperazin-1-yl]-(3-dimethylaminomethyl-phenyl)-methanone]	5
COc1nc(-c2cccc3c2OC(CNC(=O)C2CCOCC2)CO3)ccc1NC(=O)CC1CCN(C)CC1 (stereo not drawn) [Example 82, Tetrahydro-pyran-4-carboxylic acid (8-{6-methoxy-5-[2-(1-methyl-piperidin-4-yl)-acetylamino]-pyridin-2-yl}-2,3-dihydro-benzo[1,4]dioxin-2-ylmethyl)-amide]	12
COc1cccc(-c2cccc3c2OC(CNCc2cccnc2)CO3)n1 (stereo not drawn) [Example 28, [8-(6-Methoxy-pyridin-2-yl)-2,3-dihydro-benzo[1,4]dioxin-2-ylmethyl]-pyridin-3-ylmethyl-amine]	28
COc1nc(-c2cccc3c2OC(CNC(=O)C2CCOCC2)CO3)ccc1Nc1ccc(C(=O)N(C)C)cc1 (stereo not drawn) [Example 94, Tetrahydro-pyran-4-carboxylic acid {8-[5-(4-dimethyl-carbamoyl-phenylamino)-6-methoxy-pyridin-2-yl]-2,3-dihydro-benzo[1,4]dioxin-2-ylmethyl}-amide]	111
COc1nc(-c2cccc3c2OCCO3)ccc1NC1CCN(C)CC1 [Example 98, [6-(2,3-Dihydro-benzo[1,4]dioxin-5-yl)-2-methoxy-pyridin-3-yl]-(1-methyl-piperidin-4-yl)-amine]	21
CN(C)CCOc1ccc(C(=O)NCC2COc3cccc(-c4ccccn4)c3O2)cc1 (stereo not drawn) [Example 104, 4-(2-Dimethylamino-ethoxy)-N-(8-pyridin-2-yl-2,3-dihydro-benzo[1,4]dioxin-2-ylmethyl)-benzamide]	35
COc1nc(-c2cccc3c2OCCO3)ccc1Nc1cccc(CNC(=O)c2cn[nH]c2)c1 [Example 81, 1H-Pyrazole-4-carboxylic acid 3-[6-(2,3-dihydro-benzo[1,4]dioxin-5-yl)-2-methoxy-pyridin-3-ylamino]-benzylamide]	109
COc1cccc(-c2cccc3c2OC(CNCC2CCN(C(=O)c4cnccn4)CC2)CO3)n1 (stereo not drawn) [Example 29a, [4-({[8-(6-Methoxy-pyridin-2-yl)-2,3-dihydro-benzo[1,4]dioxin-2-ylmethyl]-amino}-methyl)-piperidin-1-yl]-pyrazin-2-yl-methanone]	26
COc1cccc(-c2cccc3c2OC(CNC(=O)C2CCN(C)CC2)CO3)n1 (stereo not drawn) [Example 50, 1-Methyl-piperidine-4-carboxylic acid [8-(6-methoxy-pyridin-2-yl)-2,3-dihydro-benzo[1,4]dioxin-2-ylmethyl]-amide]	14
COc1cc(NC(=O)N(C)C2CCN(C)CC2)cc(-c2cccc3c2OCCO3)n1 [Example 22, 3-[2-(2,3-Dihydro-benzo[1,4]dioxin-5-yl)-6-methoxy-pyridin-4-yl]-1-methyl-1-(1-methyl-piperidin-4-yl)-urea]	55
OCC1COc2cccc(-c3ccc(OCCN4CCOCC4)cn3)c2O1 (stereo not drawn) [Example 110, {8-[5-(2-Morpholin-4-yl-ethoxy)-pyridin-2-yl]-2,3-dihydro-benzo[1,4]dioxin-2-yl}-methanol]	4.6
CN1CCC(COc2ccc(-c3cccc4c3OCCO4)nn2)CC1 [Example 85, 3-(2,3-Dihydro-benzo[1,4]dioxin-5-yl)-6-(1-methyl-piperidin-4-ylmethoxy)-pyridazine]	20
COc1nc(-c2cccc3c2OCCO3)ccc1NC(=O)CC1CCN(C)CC1 [Example 113, N-[6-(2,3-Dihydro-benzo[1,4]dioxin-5-yl)-2-methoxy-pyridin-3-yl]-2-(1-methyl-piperidin-4-yl)-acetamide]	30
COc1cccc(-c2cccc3c2OC(CN2C(=O)CN(C4CCNCC4)C2=O)CO3)n1 (stereo not drawn) [Example 37, 3-[8-(6-Methoxy-pyridin-2-yl)-2,3-dihydro-benzo[1,4]dioxin-2-ylmethyl]-1-piperidin-4-yl-imidazolidine-2,4-dione]	31
COc1cc(NC(=O)[C@H]2CC[C@@H](N)CC2)cc(-c2cccc3c2OCCO3)n1 [Example 21, 4-Amino-cyclohexanecarboxylic acid [2-(2,3-dihydro-benzo[1,4]dioxin-5-yl)-6-methoxy-pyridin-4-yl]-amide]	66
CN1CCC(NC(=O)c2ccc(Nc3ccc(-c4cccc5c4OC(CNC(=O)C4CCOCC4)CO5)nc3)cc2)CC1 (stereo not drawn) [Example 91]	66
COc1ccc(N2CC(=O)N(CC3COc4cccc(-c5cccc(OC)n5)c4O3)C2=O)cn1 (stereo not drawn) [Example 36, 1-(6-Methoxy-pyridin-3-yl)-3-[8-(6-methoxy-pyridin-2-yl)-2,3-dihydro-benzo[1,4]dioxin-2-ylmethyl]-imidazolidine-2,4-dione]	58
COc1cc(NC(=O)N2CCN(C)CC2)cc(-c2cccc3c2OCCO3)n1 [Example 23, 4-Methyl-piperazine-1-carboxylic acid [2-(2,3-dihydro-benzo[1,4]dioxin-5-yl)-6-methoxy-pyridin-4-yl]-amide]	58
COc1cccc(-c2cccc3c2O[C@H](CNC(=O)C2CCN(Cc4cnccn4)CC2)CO3)n1 [Example 48, 1-Pyrazin-2-ylmethyl-piperidine-4-carboxylic acid [(R)-8-(6-methoxy-pyridin-2-yl)-2,3-dihydro-benzo[1,4]dioxin-2-ylmethyl]-amide]	54
COc1cccc(-c2cccc3c2OC(CNCC2CCOCC2)CO3)n1 (stereo not drawn) [Example 29, [8-(6-Methoxy-pyridin-2-yl)-2,3-dihydro-benzo[1,4]dioxin-2-ylmethyl]-(tetrahydro-pyran-4-ylmethyl)-amine]	14
COc1cccc(-c2cccc3c2OC(CNCC2CCN(C)CC2)CO3)n1 (stereo not drawn) [Example 27, [8-(6-Methoxy-pyridin-2-yl)-2,3-dihydro-benzo[1,4]dioxin-2-ylmethyl]-(1-methyl-piperidin-4-ylmethyl)-amine]	58
